In PMC10224329, “Design, Synthesis, and Antiproliferative Activity of Benzopyran-4-One-Isoxazole Hybrid Compounds” (Molecules, 2023):
“Also recorded” adds a separate entry of the source.

Assays:
[1] = system: androgen-independent human prostate cancer (DU-145) cell lines; assay: MTS cell viability assay; format: cell-based
Protocol: (§1) All the 14 hybrid compounds synthesized via Scheme 1, along with the intermediates and starting compounds, were tested in vitro for their cytotoxicity against a panel of 6 human cancer cell lines. This panel involved human leukemia carcinoma (CCRF-CEM), human ovarian adenocarcinoma (SKOV-3), human breast tumor (MDA-MB-231), human prostate cancer (PC-3), androgen-independent human prostate cancer (DU-145), and human renal carcinoma (iSLK) cell lines. The compounds were tested at a concentration of 25 μM for incubation periods of 24 and 72 h. Standard anticancer drug doxorubicin at a concentration of 5 μM and DMSO were used as controls in all the cell assays. The antiproliferative profile of benzopyran-4-one-isoxazole conjugates is shown in Figure 2 (cf. Supplementary Materials for the data obtained for intermediates and starting materials Figure S28.1–S28.6, page no. 71–76).
(§2) Cell viability assays were performed using the MTS protocol. The in vitro cytotoxicity of the conjugates was evaluated using six human cancer cell lines, one human normal kidney cell line, and one mammalian normal kidney cell line, which included human leukemia carcinoma cell lines (CCRF-CEM), human ovarian adenocarcinoma cell lines (SKOV-3), human breast tumor cell lines (MDA-MB-231), human prostate cancer cell lines (PC-3), androgen-independent human prostate cancer cell lines (DU-145), human renal carcinoma (iSLK), human embryonic kidney cell lines (HEK-293), and normal mammalian kidney cell line (LLCPK) to determine the toxicity of the synthesized conjugates. CCRF-CEM cells were seeded at 50,000 cells in 0.1 mL per well in 96-well plates, and in the case of SKOV-3, MDA-MB-231, PC-3, DU-145, HEK-293, and LLCPK cell lines, the cells were seeded at 5000 cells in 0.1 mL per well in 96-well plates. The CCRF-CEM cells were seeded in RPMI-1640 media containing 2mM L-glutamine, 1.5 g/L sodium bicarbonate, supplemented with fetal bovine serum (FBS) 10% media, SKOV-3, MDA-MB-231, and LLCPK cells were seeded in MEME media with Earle’s salts and sodium bicarbonate, without L-glutamine, supplemented with fetal bovine serum (FBS) 10%, PC-3 cells were seeded in DMEM:F-12 containing 1:1 mixture with L-glutamine with HEPES, supplemented with fetal bovine serum (FBS) 10%, and DU-145 and HEK-293 cells were seeded in DMEM containing 4500 mg/L glucose, L-glutamine, and sodium bicarbonate, without sodium pyruvate, supplemented with FBS (10%), 24 h prior to the experiment. The compounds at a final concentration of 25 µM (higher concentration stock solution prepared in DMSO) were added to each well in triplicate and incubated for 24 and 72 h at 37 °C in a humidified atmosphere (95% air and 5% CO2). The cell viability was then determined by measuring the absorbance of the formazan product at 490 nm using a microplate reader using a SpectraMax M2 microplate spectrophotometer, Molecular Devices, San Jose, CA, USA. The percentage of cell survival was calculated as [(OD value of cells treated with the test mixture of compounds) − (OD value of culture medium)]/[(OD value of control cells) − (OD value of culture medium)] × 100%. IC50 values of compounds were calculated using non-linear regression analysis in GraphPad Prism (Boston, MA, USA).

[2] = system: human breast tumor (MDA-MB-231) cell lines; assay: MTS cell viability assay; format: cell-based
Protocol: as §1, §2

[3] = system: human leukemia carcinoma (CCRF-CEM) cell lines; assay: MTS cell viability assay; format: cell-based; conditions: Homo sapiens, CCRF-CEM
Protocol: as §1, §2

[4] = system: human ovarian adenocarcinoma (SKOV-3) cell lines; assay: MTS cell viability assay; format: cell-based; conditions: SK-OV-3, conjugates at 25 μM, 72 h, read-out: Inhibition of Cancer Cell Lines SKOV-3
Protocol: as §1, §2

[5] = system: human prostate cancer (PC-3) cell lines; assay: MTS cell viability assay; format: cell-based
Protocol: as §1, §2

[6] = system: human renal carcinoma (iSLK) cell lines; assay: MTS cell viability assay; format: cell-based; conditions: Homo sapiens; conjugates at 25 μM, 72 h; read-out: Inhibition of Cancer Cell Lines iSLK
Protocol: as §1, §2

[7] = target: T1, CSK (Homo sapiens, UniProt P41240); assay: Protein kinase assay (Reaction Biology); format: biochemical; conditions: duplicate, 200 μM ATP, read-out: % Enzyme Activity (Relative to DMSO Controls) CSK
T1 construct: purchased Reaction Biology Corporation
Protocol: (§3) Therefore, selected compound 5a was screened against several protein kinases to explore the potential of these hybrid compounds as kinase inhibitors. The screening of compound 5a was performed on a panel of 9 kinases, viz., ABL1, c-Kit, c-Src, CDK2/cyclin A1, CSK, EGFR, mTOR/FRAP1, p38a/MAPK14, PKCa, and PI3K, at a dose of 20 μM. The respective positive controls were used for each kinase, and the kinase reaction was performed at 200 μM ATP concentration for all the kinases except for PI3K, which was performed at 10 µM ATP (Table 2). […] It appeared that compound 5a containing a 3-position substitution with an isoxazole ring and a 4-position with a carbonyl group has a detrimental effect on kinase inhibition. Previously 3-substituted benzopyran compound with a short alkyl chain of urea (NH-CO-NH-Et/Me/iPr) was reported with Abl kinase inhibitory activity in the range of 4–27 μM [36]. […] Due to prominent antiproliferative activity, these compounds may have some other targets for anticancer activity.
(§4) Compound 5a was tested at a single dose of 20 μM against 9 kinases, viz., Abl1, c-Kit, c-Src, CDK2/cyclin A1, CSK, EGFR, mTOR/FRAP1, p38a/MAPK14, PKCa, and PI3K using our previously reported protocol in duplicate by Reaction Biology Corporation. The respective positive controls, e.g., staurosporine for all the kinases, except SB202190 for P38a/MAP14 and P1-103 for mTOR/FRAP1, were used, and the kinase reaction was performed at 200 μM ATP concentration for all the kinases except for PI3K, which was performed at 10 µM ATP.

[8] = target: T2, p38a/MAPK14 (Homo sapiens, UniProt Q16539); assay: Protein kinase assay (Reaction Biology); format: biochemical; conditions: duplicate, 200 μM ATP, read-out: % Enzyme Activity (Relative to DMSO Controls) p38a/MAPK14
T2 construct: purchased Reaction Biology Corporation
Protocol: as §3, §4

[9] = system: ABL1, c-Kit, c-Src, CDK2/cyclin A1, CSK, EGFR, mTOR/FRAP1, p38a/MAPK14, PKCa, and PI3K; assay: Protein kinase panel screen, overall; format: biochemical; conditions: single dose of 20 μM, all kinases screened
Protocol: as §3
Compound 5a was tested at a single dose of 20 μM against 9 kinases, viz., Abl1, c-Kit, c-Src, CDK2/cyclin A1, CSK, EGFR, mTOR/FRAP1, p38a/MAPK14, PKCa, and PI3K using our previously reported protocol in duplicate by Reaction Biology Corporation. […]

[10] = average of three independent tests in triplicate

T1 sequence (P41240 whole entry): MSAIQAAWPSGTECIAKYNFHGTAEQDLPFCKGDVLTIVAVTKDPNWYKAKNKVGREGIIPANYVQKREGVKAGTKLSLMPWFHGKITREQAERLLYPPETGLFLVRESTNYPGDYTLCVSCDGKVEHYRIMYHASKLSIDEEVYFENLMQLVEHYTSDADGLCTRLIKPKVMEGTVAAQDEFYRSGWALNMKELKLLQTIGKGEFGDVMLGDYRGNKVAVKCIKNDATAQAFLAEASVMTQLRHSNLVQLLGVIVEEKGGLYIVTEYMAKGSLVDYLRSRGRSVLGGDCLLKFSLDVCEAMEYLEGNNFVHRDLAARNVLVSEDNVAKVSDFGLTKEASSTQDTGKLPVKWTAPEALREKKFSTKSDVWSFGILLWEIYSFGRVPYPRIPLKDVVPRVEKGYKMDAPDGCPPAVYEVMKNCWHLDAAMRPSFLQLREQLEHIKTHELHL
T2 sequence (Q16539 whole entry): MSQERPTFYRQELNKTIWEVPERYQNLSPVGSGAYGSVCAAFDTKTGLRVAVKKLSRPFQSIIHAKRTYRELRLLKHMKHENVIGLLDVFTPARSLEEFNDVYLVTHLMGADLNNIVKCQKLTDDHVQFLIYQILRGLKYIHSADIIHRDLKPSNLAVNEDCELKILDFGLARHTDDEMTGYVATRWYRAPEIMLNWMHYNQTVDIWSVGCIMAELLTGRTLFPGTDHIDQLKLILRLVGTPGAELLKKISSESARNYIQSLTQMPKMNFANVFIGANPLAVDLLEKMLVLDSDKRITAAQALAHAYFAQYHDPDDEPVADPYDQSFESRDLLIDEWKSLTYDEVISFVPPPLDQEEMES

Cc1noc(C)c1C(=O)OCc1coc2ccccc2c1=O [Compound 5a, (4-Oxo-4H-1-benzopyran-3-yl)methyl 3,5-dimethylisoxazole-4-carboxylate]
IC50 [1, 10]: 15.3 µM
inhibition at 25 µM ([1]; conjugates at 25 μM, 72 h): 73%
IC50 [2, 10]: 5.6 µM
inhibition at 25 µM ([2]; conjugates at 25 μM, 72 h, read-out: Inhibition of Cancer Cell Lines MDA-MB-231): 78%
inhibition at 25 µM ([3]; conjugates at 25 μM, 72 h, read-out: Inhibition of Cancer Cell Lines CCRF-CEM): 81%
IC50 [3, 10]: 11.6 µM
inhibition at 25 µM [4]: 69%
IC50 ([5]; PC3, average of three independent tests in triplicate): 17.8 µM
inhibition at 25 µM ([5]; conjugates at 25 μM, 72 h): 70%
inhibition at 25 µM [6]: 44%
remaining activity at 20 µM [7]: 93%
remaining activity at 20 µM [8]: 83.1%
kinase inhibitory activity (in words) [9]: inactive; also recorded: did not show protein tyrosine kinase inhibitory activity
